From US4877893A, “Process for the preparation of 2-(O-alkyl)-2-thio-1,3,2-oxathiophospholanes” (priority 1987, dated 1989)

Key:
[1] = system: Penicillium cyclopium; experiment: Fungicidal effect on infected agar nutrient media, colony diameter; type: cell-based; settings: 7th day after treatment, untreated 26.5
Procedure, shortened: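 Agar media (70 mm diameter, 10 mm thick) infected with Penicillium cyclopium were treated with EC formulations at 1, 10, 100 and 1000 ppm active ingredient. Fungal colony diameter was measured on day 7 after treatment.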

[2] = system: sugar beet seeds strongly infected by pathogens; experiment: Seed dressing test, shoot up %; type: in vivo; settings: related to untreated control = 100
From the text: (§1) In this test cotton, maize, sunflower and sugar beet seeds strongly infected by pathogens and treated with different doses of 2-(0-2'-chloroethyl)-2-thio-1,3,2-oxathiophospholane (Compound No. 1) are used. The doses amount to 50, 100 and 200 g of active ingredient, respectively. As reference seeds being either untreated or treated with Mancozeb (manganese +zinc/-ethylene bis-dithiocarbamte) 0.8 kg/t +Benomyl (1-butyl carbamoyl-benzimidazole-2-methylcarbamate) 0.5 kg/t are used.
(§2) Compound No. 1 of the present invention is formulated as 50 WP in an analogous manner to Example 31. The test is carried out in six replicates, by sowing 10 seeds in each replicate. The results are evaluated by determining the shoot up % related to the control.

[3] = system: cotton seeds strongly infected by pathogens; experiment: Seed dressing test, shoot up %; type: in vivo; settings: related to untreated control = 100
From the text: as §1, §2

[4] = system: maize seeds strongly infected by pathogens; experiment: Seed dressing test, shoot up %; type: in vivo; settings: related to untreated control = 100
From the text: as §1, §2

[5] = system: sunflower seeds strongly infected by pathogens; experiment: Seed dressing test, shoot up %; type: in vivo; settings: related to untreated control = 100
From the text: as §1, §2

[6] = system: Alternaria tenuis; experiment: Fungicidal effect on infected agar nutrient media, colony diameter; type: cell-based; settings: 5th day after treatment, untreated control 36.8
Procedure, shortened: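 Agar media (70 mm diameter, 10 mm thick) infected with Alternaria tenuis, treated with EC formulations at 1, 10, 100 and 1000 ppm active ingredient. Fungicidal effect read on day 5 after treatment as fungal colony diameter.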

[7] = system: Sclerotinia sp.; experiment: Fungicidal effect on paprika seeds on agar, colony diameter; type: cell-based; settings: 5th day, control 41.50
Procedure: (§3) The test is carried out on paprika seeds placed on agar nutrient medium and impregnated with phytopathogenic Fungi (Alternaria sp., Penicillium sp., Sclerotinia sp.). The paprika seeds are treated with various doses of 2-(0-2'-chloroethyl)-2-thio-1,3,2-oxathiophospholane (Compound No. 1 of Table I) and the known fungicidal agent Aliette, respectively.
(§4) The concentration data relate to the active ingredient. Treatment is carried out by using a 20 EC prepared according to Example 27. Evaluation is carried out on the 5th day after treatment by measuring the diameter of the Fungi colonies.

[8] = system: Penicillium sp.; experiment: as above; type: cell-based; settings: 5th day, control 23.35
Procedure: as §3, §4

[9] = system: Alternaria sp.; experiment: as above; type: cell-based; settings: 5th day, control 36.62
Procedure: as §3, §4

[10] = system: Fusarium sp. and Alternaria sp.; experiment: Soil disinfection test, shoot up %; type: in vivo, sugar beet; settings: 1 kg of active ingredient/ha; soil disinfectant granules; untreated control = 100
Procedure: (§5) The soil is watered and admixed with a Fusarium sp. and Alternaria sp. suspension. In the infected soil cotton and sugar beet seeds are sown, namely 10 seeds per replicate. Eight replicates are used in the test. The soil is treated with 2-(0-2'-chloroethyl)-2-thio-1,3,2-oxathiophospholane (Compound No. 1) in a dose of 1 kg of active ingredient.ha^- 1. Treatment is carried out with soil disinfectant granules prepared in an analogous manner to Example 33. Evaluation is carried out by determining the shoot up % related to the untreated control.

[11] = system: Fusarium sp. and Alternaria sp.; experiment: Soil disinfection test, shoot up %; type: in vivo, cotton; settings: 1 kg of active ingredient/ha; soil disinfectant granules; untreated control = 100
Procedure: as §5

[12] = system: Sclerotinia sclerotinia; experiment: Fungicidal effect on infected agar nutrient media, colony diameter; type: cell-based; settings: 3rd day after treatment, untreated control 41.7
Procedure: Agar nutrient media (Diameter 70 MM, thickness 10 mm) infected by Sclerotonia sclerotinia suspension are treated with 20 EC formulations prepared according to Example 27 and comprising 1, 10, 100 and 1000 ppm, respectively of the active ingredient of the Formula I. The fungicidal effect of the compositions is evaluated on the 3rd day after treatment by measuring the diameter of the Fungi colonies.

S=P1(OCCCl)OCCS1 (centres unmarked) [Compound 1, 2-(O-2'-chloroethyl)-2-thio-1,3,2-oxathiophospholane]
Diameter of colony (mm) ([1]; 1 ppm): 23.2 mm
Diameter of colony (mm) ([1]; 10 ppm): 20.0 mm
Diameter of colony (mm) ([1]; 100 ppm): 8.0 mm
Diameter of colony (mm) ([1]; 1000 ppm): 0 mm
Shoot up % Sugar beet ([2]; 50 g/t): 205%
Shoot up % Sugar beet ([2]; 100 g/t): 312%
Shoot up % Sugar beet ([2]; 200 g/t): 156%
Shoot up % Cotton ([3]; 50 g/t): 146%
Shoot up % Cotton ([3]; 100 g/t): 218%
Shoot up % Cotton ([3]; 200 g/t): 255%
Shoot up % Maize ([4]; 50 g/t): 121%
Shoot up % Maize ([4]; 100 g/t): 133%
Shoot up % Maize ([4]; 200 g/t): 125%
Shoot up % Sunflower ([5]; 50 g/t): 132%
Shoot up % Sunflower ([5]; 100 g/t): 154%
Shoot up % Sunflower ([5]; 200 g/t): 129%
Diameter of colony (mm) ([6]; 1 ppm): 33.5 mm
Diameter of colony (mm) ([6]; 10 ppm): 25.8 mm
Diameter of colony (mm) ([6]; 100 ppm): 7.6 mm
Diameter of colony (mm) ([6]; 1000 ppm): 0 mm
Diameter of Colony (MM) Sclerotinia ([7]; 1 ppm): 39.37 MM
Diameter of Colony (MM) Sclerotinia ([7]; 5 ppm): 40.62 MM
Diameter of Colony (MM) Sclerotinia ([7]; 10 ppm): 31.75 MM
Diameter of Colony (MM) Sclerotinia ([7]; 50 ppm): 10.62 MM
Diameter of Colony (MM) Sclerotinia ([7]; 100 ppm): 3.50 MM
Diameter of Colony (MM) Sclerotinia ([7]; 1000 ppm): 0 MM
Diameter of Colony (MM) Penicillium ([8]; 1 ppm): 22.20 MM
Diameter of Colony (MM) Penicillium ([8]; 5 ppm): 20.05 MM
Diameter of Colony (MM) Penicillium ([8]; 10 ppm): 20.05 MM
Diameter of Colony (MM) Penicillium ([8]; 50 ppm): 19.40 MM
Diameter of Colony (MM) Penicillium ([8]; 100 ppm): 8.12 MM
Diameter of Colony (MM) Penicillium ([8]; 1000 ppm): 0 MM
Diameter of Colony (MM) Alternaria ([9]; 1 ppm): 33.50 MM
Diameter of Colony (MM) Alternaria ([9]; 5 ppm): 32.25 MM
Diameter of Colony (MM) Alternaria ([9]; 10 ppm): 25.87 MM
Diameter of Colony (MM) Alternaria ([9]; 50 ppm): 16.75 MM
Diameter of Colony (MM) Alternaria ([9]; 100 ppm): 7.62 MM
Diameter of Colony (MM) Alternaria ([9]; 1000 ppm): 0 MM
Shoot up % Sugar beet [10]: 346%
Shoot up % Cotton [11]: 239%
Diameter of colony (mm) ([12]; 1 ppm): 39.4 mm
Diameter of colony (mm) ([12]; 10 ppm): 31.7 mm
Diameter of colony (mm) ([12]; 100 ppm): 3.5 mm
Diameter of colony (mm) ([12]; 1000 ppm): 0 mm

CCO[PH](=O)O [Aliette, aluminum-tris-(O-ethyl-phosphate), reference compound]
Diameter of Colony (MM) Sclerotinia ([7]; 1 ppm): 40.45 MM
Diameter of Colony (MM) Sclerotinia ([7]; 5 ppm): 39.64 MM
Diameter of Colony (MM) Sclerotinia ([7]; 10 ppm): 36.44 MM
Diameter of Colony (MM) Sclerotinia ([7]; 50 ppm): 28.06 MM
Diameter of Colony (MM) Sclerotinia ([7]; 100 ppm): 22.40 MM
Diameter of Colony (MM) Sclerotinia ([7]; 1000 ppm): 6.75 MM
Diameter of Colony (MM) Penicillium ([8]; 1 ppm): 21.35 MM
Diameter of Colony (MM) Penicillium ([8]; 5 ppm): 20.66 MM
Diameter of Colony (MM) Penicillium ([8]; 10 ppm): 18.45 MM
Diameter of Colony (MM) Penicillium ([8]; 50 ppm): 17.63 MM
Diameter of Colony (MM) Penicillium ([8]; 100 ppm): 16.62 MM
Diameter of Colony (MM) Penicillium ([8]; 1000 ppm): 10.15 MM
Diameter of Colony (MM) Alternaria ([9]; 1 ppm): 34.05 MM
Diameter of Colony (MM) Alternaria ([9]; 5 ppm): 35.16 MM
Diameter of Colony (MM) Alternaria ([9]; 10 ppm): 29.41 MM
Diameter of Colony (MM) Alternaria ([9]; 50 ppm): 26.13 MM
Diameter of Colony (MM) Alternaria ([9]; 100 ppm): 19.16 MM
Diameter of Colony (MM) Alternaria ([9]; 1000 ppm): 8.92 MM

CC1COP(=S)(OC(C)C(C)Br)S1 (centres unmarked) [Compound 32]
Diameter of colony (mm) ([1]; 1 ppm): 19.4 mm
Diameter of colony (mm) ([1]; 10 ppm): 16.7 mm
Diameter of colony (mm) ([1]; 100 ppm): 7.2 mm
Diameter of colony (mm) ([1]; 1000 ppm): 0 mm
Diameter of colony (mm) ([6]; 1 ppm): 31.2 mm
Diameter of colony (mm) ([6]; 10 ppm): 27.4 mm
Diameter of colony (mm) ([6]; 100 ppm): 7.2 mm
Diameter of colony (mm) ([6]; 1000 ppm): 0 mm
Diameter of colony (mm) ([12]; 1 ppm): 38.9 mm
Diameter of colony (mm) ([12]; 10 ppm): 30.0 mm
Diameter of colony (mm) ([12]; 100 ppm): 3.2 mm
Diameter of colony (mm) ([12]; 1000 ppm): 0 mm

CCCC(C)OP1(=S)OCCS1 (centres unmarked) [Compound 62, 2-(0-1'-methyl-n-butyl)-2-thio-1,3,2-oxathiophospholane]
Diameter of colony (mm) ([1]; 1 ppm): 26.1 mm
Diameter of colony (mm) ([1]; 10 ppm): 20.2 mm
Diameter of colony (mm) ([1]; 100 ppm): 7.4 mm
Diameter of colony (mm) ([1]; 1000 ppm): 0 mm
Diameter of colony (mm) ([6]; 1 ppm): 34.1 mm
Diameter of colony (mm) ([6]; 10 ppm): 25.7 mm
Diameter of colony (mm) ([6]; 100 ppm): 6.9 mm
Diameter of colony (mm) ([6]; 1000 ppm): 0 mm
Diameter of colony (mm) ([12]; 1 ppm): 37.0 mm
Diameter of colony (mm) ([12]; 10 ppm): 30.2 mm
Diameter of colony (mm) ([12]; 100 ppm): 3.9 mm
Diameter of colony (mm) ([12]; 1000 ppm): 0 mm
